Assay results taken from BindingDB's records for doi:10.1038/347146a0 (U. 109, 1990).

Experiments:
D(3) dopamine receptor = D(3) dopamine receptor (Rattus norvegicus, UniProt P19020)
D(2) dopamine receptor = D(2) dopamine receptor (Rattus norvegicus, UniProt P61169)
Chain of D(2) dopamine receptor (P61169 whole entry): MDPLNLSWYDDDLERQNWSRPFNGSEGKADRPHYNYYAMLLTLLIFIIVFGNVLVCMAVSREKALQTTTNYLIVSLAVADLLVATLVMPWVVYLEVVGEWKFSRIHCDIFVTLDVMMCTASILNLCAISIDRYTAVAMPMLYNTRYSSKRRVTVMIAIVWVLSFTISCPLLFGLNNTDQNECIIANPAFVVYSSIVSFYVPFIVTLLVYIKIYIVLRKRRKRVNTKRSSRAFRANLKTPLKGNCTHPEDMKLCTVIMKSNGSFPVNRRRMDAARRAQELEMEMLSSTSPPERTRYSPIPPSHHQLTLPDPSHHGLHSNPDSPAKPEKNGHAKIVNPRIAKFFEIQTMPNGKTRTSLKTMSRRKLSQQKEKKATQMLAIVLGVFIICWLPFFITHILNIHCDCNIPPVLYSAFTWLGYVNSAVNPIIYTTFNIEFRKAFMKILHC

Chain of D(3) dopamine receptor (P19020 whole entry): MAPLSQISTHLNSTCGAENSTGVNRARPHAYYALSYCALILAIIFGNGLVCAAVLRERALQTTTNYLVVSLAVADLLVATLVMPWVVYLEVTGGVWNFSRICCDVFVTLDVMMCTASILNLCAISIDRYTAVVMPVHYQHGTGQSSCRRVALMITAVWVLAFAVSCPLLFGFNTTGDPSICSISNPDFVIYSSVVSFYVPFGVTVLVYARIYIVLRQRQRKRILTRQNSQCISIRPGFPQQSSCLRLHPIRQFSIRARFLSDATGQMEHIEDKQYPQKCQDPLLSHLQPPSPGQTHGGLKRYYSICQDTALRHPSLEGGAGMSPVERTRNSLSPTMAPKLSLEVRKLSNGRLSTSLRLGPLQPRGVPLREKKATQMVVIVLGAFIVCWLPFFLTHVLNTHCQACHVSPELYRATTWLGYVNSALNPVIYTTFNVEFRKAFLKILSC

| SMILES | Ki (D(3) dopamine receptor) [µM] | Ki (D(2) dopamine receptor) [µM] |
| --- | --- | --- |
| CCS(=O)(=O)c1cc(C(=O)NCC2CCCN2CC2CC2)c(OC)cc1I (stereo unspecified) [NSC_122245] | 0.0012 | 0.00061 |
| CCCN(CCC)C1C=Cc2c(OC)cccc2C1C (stereo unspecified) [CAS_5311190] | 0.0092 | 0.04 |
| Nc1nc2c(ncn2[C@@H]2O[C@H](COP(=O)(O)OP(=O)(O)NP(=O)(O)O)[C@@H](O)[C@H]2O)c(=O)[nH]1 [Guanylyl imidodiphosphate] | 0.027 | 1.7 |
